Data published in ChEMBL document CHEMBL1201862, “PubChem BioAssay data set” (2004).
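Tested at 5 concentrations; 48 h exposure; 96-well plates; endpoints linearly interpolated, else capped at highest concentration. Abbreviation: GI50, concentration required for 50% inhibition of growth.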 Activity calls are given as the source filed them. Cut-off read from the data, not from the text of the source: active = GI50 up to about 1.1 µM and inactive = higher.

Assays:
Experiment in all cases: growth of human tumour cells (NCI), 48 h
MDA-MB-435 = tested on: MDA-MB-435
T47D = tested on: T47D
HCT-15 = tested on: HCT-15
HL-60 = tested on: HL-60
SF-268 = tested on: SF-268
CAKI-1 = tested on: CAKI-1
MCF7 = tested on: MCF7
Malme-3M = tested on: Malme-3M
SK-OV-3 = tested on: SK-OV-3
UO-31 = tested on: UO-31
SNB-19 = tested on: SNB-19
SNB-75 = tested on: SNB-75
MOLT-4 = tested on: MOLT-4
HOP-92 = tested on: HOP-92
HCT-116 = tested on: HCT-116
OVCAR-8 = tested on: OVCAR-8
UACC-257 = tested on: UACC-257
MDA-MB-231 = tested on: MDA-MB-231
A498 = tested on: A498

| SMILES | GI50 (MDA-MB-435) | GI50 (T47D) | GI50 (HCT-15) [µM] | GI50 (HL-60) | GI50 (SF-268) | GI50 (CAKI-1) | GI50 (MCF7) | GI50 (Malme-3M) | GI50 (SK-OV-3) | GI50 (UO-31) | GI50 (SNB-19) | GI50 (SNB-75) | GI50 (MOLT-4) | GI50 (HOP-92) | GI50 (HCT-116) | GI50 (OVCAR-8) | GI50 (UACC-257) | GI50 (MDA-MB-231) | GI50 (A498) |
| --- | --- | --- | --- | --- | --- | --- | --- | --- | --- | --- | --- | --- | --- | --- | --- | --- | --- | --- | --- |
| CC12CCCC3(CC(=O)C(C)(C)C3C(=O)C1)C2 (centres undefined) | > 100 µM (inactive) | > 100 µM (inactive) | > 100 | > 100 µM (inactive) | > 100 µM (inactive) | > 100 µM (inactive) | > 100 µM (inactive) | > 100 µM (inactive) | > 100 µM (inactive) | > 100 µM (inactive) | > 100 µM (inactive) | > 100 µM (inactive) | > 100 µM (inactive) | > 100 µM (inactive) | > 100 µM (inactive) | > 100 µM (inactive) | > 100 µM (inactive) | – | – |
| CC(c1ccccc1)N1CCN(C(C)c2ccccc2)CC1 (centres undefined) | 80.4 µM (inactive) | > 100 µM (inactive) | 57.1 | > 100 µM (inactive) | > 100 µM (inactive) | > 100 µM (inactive) | – | 56.6 µM (inactive) | – | > 100 µM (inactive) | > 100 µM (inactive) | – | 39.5 µM (inactive) | 31.6 µM (inactive) | 43.5 µM (inactive) | > 100 µM (inactive) | 68.7 µM (inactive) | > 100 µM (inactive) | 77.4 µM (inactive) |
| CCC(=O)N1C(=O)C(CC)(CC)C(=O)N1C(=O)CC | > 100 µM (inactive) | > 100 µM (inactive) | > 100 | > 100 µM (inactive) | > 100 µM (inactive) | > 100 µM (inactive) | > 100 µM (inactive) | > 100 µM (inactive) | > 100 µM (inactive) | > 100 µM (inactive) | > 100 µM (inactive) | > 100 µM (inactive) | > 100 µM (inactive) | – | > 100 µM (inactive) | > 100 µM (inactive) | > 100 µM (inactive) | > 100 µM (inactive) | – |
| COCCn1cnc2c(Cl)nc(Nc3ccccc3)nc21 | 18.1 µM (inactive) | 29.8 µM (inactive) | 22.9 | 22.9 µM (inactive) | 39.4 µM (inactive) | – | 36.4 µM (inactive) | > 10 µM (inactive) | 37.2 µM (inactive) | – | 90.4 µM (inactive) | 68.5 µM (inactive) | 23.3 µM (inactive) | – | 27.7 µM (inactive) | 23.9 µM (inactive) | 36.7 µM (inactive) | 27.7 µM (inactive) | 59.4 µM (inactive) |
| c1ccc2c(c1)Nc1cccc3c1c-2nc1cc2ccccc2cc13 | 2 µM (inactive) | – | – | – | 1.71 µM (inactive) | 1.64 µM (inactive) | 1.56 µM (inactive) | 1.69 µM (inactive) | 1.64 µM (inactive) | 1.63 µM (inactive) | 1.75 µM (inactive) | 1.41 µM (inactive) | – | 1.51 µM (inactive) | 1.75 µM (inactive) | – | 1.58 µM (inactive) | 1.1 µM (active) | 2.88 µM (inactive) |
| O=C(O)CCC(NC(=O)c1ccc(Oc2nc3ccccc3nc2C(=O)O)cc1)C(=O)O (centres undefined) | > 100 µM (inactive) | > 100 µM (inactive) | > 100 | > 100 µM (inactive) | > 100 µM (inactive) | > 100 µM (inactive) | – | > 100 µM (inactive) | > 100 µM (inactive) | > 100 µM (inactive) | > 100 µM (inactive) | > 100 µM (inactive) | > 100 µM (inactive) | > 100 µM (inactive) | > 100 µM (inactive) | > 100 µM (inactive) | > 100 µM (inactive) | > 100 µM (inactive) | > 100 µM (inactive) |
| COc1ccc2c(c1)/C(=C\c1c(C)nc3sc(C)cn13)C(=O)N2 | 0.106 µM (active) | 9.89 µM (inactive) | 0.49 | 0.292 µM (active) | 2.35 µM (inactive) | 2.13 µM (inactive) | 0.332 µM (active) | 0.172 µM (active) | 1.64 µM (inactive) | 3.92 µM (inactive) | 3.33 µM (inactive) | – | 0.778 µM (active) | – | 0.498 µM (active) | 2.94 µM (inactive) | 1.41 µM (inactive) | 0.855 µM (active) | 0.531 µM (active) |
| NC(=O)c1cccc(OCC(O)CO)c1 (centres undefined) | – | > 100 µM (inactive) | > 100 | > 100 µM (inactive) | > 100 µM (inactive) | > 100 µM (inactive) | > 100 µM (inactive) | – | > 100 µM (inactive) | > 100 µM (inactive) | > 100 µM (inactive) | > 100 µM (inactive) | > 100 µM (inactive) | – | > 100 µM (inactive) | > 100 µM (inactive) | > 100 µM (inactive) | > 100 µM (inactive) | > 100 µM (inactive) |
| Cc1cccc(C)c1NC(=O)/C(CC(=O)CC(c1ccccc1)c1c(O)c2ccccc2oc1=O)=N/O (centres undefined) | > 100 µM (inactive) | – | > 100 | > 100 µM (inactive) | > 100 µM (inactive) | > 100 µM (inactive) | > 100 µM (inactive) | – | > 100 µM (inactive) | > 100 µM (inactive) | > 100 µM (inactive) | > 100 µM (inactive) | > 100 µM (inactive) | 31.3 µM (inactive) | > 100 µM (inactive) | > 100 µM (inactive) | > 100 µM (inactive) | > 100 µM (inactive) | – |
| O=C1Nc2ccccc2N/C1=C\C(=O)C(F)F | > 100 µM (inactive) | – | > 100 | > 100 µM (inactive) | > 100 µM (inactive) | > 100 µM (inactive) | > 100 µM (inactive) | > 100 µM (inactive) | > 100 µM (inactive) | > 100 µM (inactive) | > 100 µM (inactive) | – | > 100 µM (inactive) | – | > 100 µM (inactive) | > 100 µM (inactive) | > 100 µM (inactive) | > 100 µM (inactive) | > 100 µM (inactive) |
| N#Cc1c(-c2ccc([N+](=O)[O-])cc2)c(C#N)c(=O)n(NS(=O)(=O)c2ccccc2)c1-c1ccccc1 | > 100 µM (inactive) | – | > 100 | > 100 µM (inactive) | > 100 µM (inactive) | > 100 µM (inactive) | > 100 µM (inactive) | > 100 µM (inactive) | > 100 µM (inactive) | – | > 100 µM (inactive) | > 100 µM (inactive) | > 100 µM (inactive) | > 100 µM (inactive) | > 100 µM (inactive) | > 100 µM (inactive) | > 100 µM (inactive) | > 100 µM (inactive) | > 100 µM (inactive) |
| Cc1ccc(/N=N/c2c(C)c(C#N)c(=S)n(C3OC(CO)C(O)C(O)C3O)c2-c2ccccc2)cc1 (centres undefined) | 6.18 µM (inactive) | 22.4 µM (inactive) | 21.9 | 36.8 µM (inactive) | 26.7 µM (inactive) | 25.7 µM (inactive) | 18.2 µM (inactive) | 24.9 µM (inactive) | 34.1 µM (inactive) | 33.5 µM (inactive) | 19.6 µM (inactive) | 20.1 µM (inactive) | 9.73 µM (inactive) | – | 13.2 µM (inactive) | – | 28.1 µM (inactive) | 40 µM (inactive) | 0.74 µM (active) |
| NC(=S)Nc1c(S(N)(=O)=O)cc(S(N)(=O)=O)c(Cl)c1Cl | > 100 µM (inactive) | – | > 100 | > 100 µM (inactive) | > 100 µM (inactive) | > 100 µM (inactive) | > 100 µM (inactive) | > 100 µM (inactive) | > 100 µM (inactive) | > 100 µM (inactive) | > 100 µM (inactive) | > 100 µM (inactive) | > 100 µM (inactive) | > 100 µM (inactive) | > 100 µM (inactive) | > 100 µM (inactive) | > 100 µM (inactive) | > 100 µM (inactive) | – |
| CCOC(=O)c1nc2cc(C(F)(F)F)ccc2nc1Nc1ccc(C(=O)NC(C(=O)OCC)C(=O)OCC)cc1 | 33.6 µM (inactive) | – | 26.5 | 73.6 µM (inactive) | 19.5 µM (inactive) | 19 µM (inactive) | 19.5 µM (inactive) | 20 µM (inactive) | 22.2 µM (inactive) | 30.6 µM (inactive) | 18.2 µM (inactive) | – | > 100 µM (inactive) | 27.4 µM (inactive) | 19 µM (inactive) | – | 18.7 µM (inactive) | 17.4 µM (inactive) | 25.5 µM (inactive) |
| CCNCCNc1c2ccccc2nc2ccccc12 | 1.21 µM (inactive) | 2.38 µM (inactive) | 1.48 | 2.24 µM (inactive) | 1.35 µM (inactive) | 0.698 µM (active) | 0.565 µM (active) | 1.7 µM (inactive) | 1.07 µM (active) | 1.49 µM (inactive) | 1.01 µM (active) | 1.53 µM (inactive) | 0.54 µM (active) | – | 0.515 µM (active) | 1.81 µM (inactive) | 1.66 µM (inactive) | 1.24 µM (inactive) | – |
| CC(=O)Oc1ccc2cc(-c3ccccc3OC(C)=O)c(=O)oc2c1 | 10.9 µM (inactive) | 25.7 µM (inactive) | 33.7 | 3.24 µM (inactive) | 19.1 µM (inactive) | – | 89.3 µM (inactive) | 34.3 µM (inactive) | – | 4.97 µM (inactive) | 46.9 µM (inactive) | 11.7 µM (inactive) | 6.92 µM (inactive) | – | 66.5 µM (inactive) | 62.4 µM (inactive) | > 100 µM (inactive) | 82.8 µM (inactive) | 40.7 µM (inactive) |
| C=C1CC[C@@H]2C13[C@@H]1[C@H](CC(=O)[C@@]23C)C1(C)C (some centres undefined) | > 100 µM (inactive) | 55.8 µM (inactive) | > 100 | > 100 µM (inactive) | > 100 µM (inactive) | > 100 µM (inactive) | > 100 µM (inactive) | > 100 µM (inactive) | > 100 µM (inactive) | 16.4 µM (inactive) | – | – | > 100 µM (inactive) | > 100 µM (inactive) | > 100 µM (inactive) | 35.9 µM (inactive) | > 100 µM (inactive) | – | > 100 µM (inactive) |
